In patent publication US12098176B2, “Keratin BD-4, preparation method, and pharmaceutical composition and use thereof” (Institute of Materia Medica, Chinese Academy of Medical …, priority 2019, dated 2024):
Where a name gives a salt, the structure may show the parent alone. Marks after values point to notes of the source that are not given here.

Legend:
[1] = test system: mice cough induced by ammonia water; assay: Antitussive test, cough induced by ammonia water in mice; type: in vivo, mouse
Description: Experimental example 6 The effect of protein BD-4 (Example 4 protein) on the antitussive effect of the cough induced by ammonia water in mice. Animals: male ICR mice; Drugs and reagents: dextromethorphan hydrobromide, ammonia, 0.2% CMC-Na, protein BD-4; Apparatus: Compressed nebulizer (403T type), balance (XS105DU type). Experiment Grouping: • Solvent control group; • Dextromethorphan 15 mg/kg group; • Protein BD-4, 20 mg/kg group, 50 mg/kg group. Method: Model Preparation and Administration:
Dextromethorphan and different doses of protein BD-4 (administration volume 10 ml/kg) were given orally in groups, and the solvent control group was given the same volume of distilled water. One hour later, it was put into a sealed box and atomized 10% ammonia water for 10 seconds, and then observed and recorded the incubation period of cough in mice and the number of coughs in 2 minutes.
Record the time point of oral administration, the time point of atomization experiment, the incubation period of mice cough and the number of coughs within 2 minutes, respectively. The incubation period of cough refers to the number of seconds from the start of the atomization of ammonia to the occurrence of cough. The performance of coughing in mice is based on contraction of their abdominal muscles (breast contraction) and opening their mouths at the same time. Calculate the mean and standard error of each group of data, use TTEST to compare the model group with other groups, and P<0.05 is considered as a significant difference.

[2] = test system: PLO-induced epilepsy in mice; assay: Pilocarpine (PLO) induced convulsive epilepsy in mice; type: in vivo, mouse; conditions: Diazepam 2 mg/kg
Description: Experimental example 3 The pharmacodynamic test of protein BD-4 (Example 4 protein) on convulsive epilepsy in mice caused by the convulsion agent Pilocarpine (PLO)
Model group: • Diazepam (Diazepam) 2 mg/kg group; • Protein BD-4, 50 mg/kg group, 200 mg/kg group. Method: Model Preparation and Administration:
The drug was administered once in the afternoon the day before modeling, PLO-225 mg/kg (modeling agent) was injected intraperitoneally 1 hour after the test drug was given to the stomach on the day of modeling. And positive drug can be administered once 20 minutes before modeling. Observe for 30 minutes after PLO injection.
Observation indicators: 1) Seizure situation: the time of seizures from grade II to grade IV; 2) the time to death.
Attack level: Refer to Racine grading standard: Level 0: No response; Grade I: manifested as twitching of facial muscles or the corners of the mouth; Level II: can nod; Level III: Twitching of one limb; Grade IV: rigidity or body twitching; Grade V: generalized epilepsy (generalized tonic seizures).
Count the number of grade IV seizures and deaths in each group of mice in the experiment; Level II, III and IV incubation period. […] Chi-square test was used for statistics of the number of cases. The mean value and standard error of the incubation period were calculated, and TTEST was used to compare the model group with other groups. P<0.05 was considered as a significant difference.

[3] = test system: PTZ-induced epilepsy in mice; assay: Pentylenetetrazole (PTZ) induced epilepsy in mice; type: in vivo, mouse; conditions: Retigabine 60 mg/kg
Description: Experiment Grouping: • Model group; • Retigabine 60 mg/kg group; • Protein BD-4, 50 mg/kg group, 200 mg/kg group; Method: Model Preparation and Administration:
Administer once in the afternoon the day before modeling, On the day of modeling, intraperitoneal injection of PTZ-65 mg/kg (modeling agent) 1 hour after gavage of the test drug, the positive drug can be administered once half an hour before modeling. Continue to observe for 15 minutes after injection of PTZ.
Observation index: 1) Seizure condition: Onset time of grade III to grade VI; 2) Death situation
Onset level: Refer to Racine grading standard: Level 0: No response; Grade I: manifested as twitching of facial muscles or the corners of the mouth; Level II: Can nod; Grade III: twitching of one limb; Grade IV: Rigidity or body twitching; Grade V: Generalized epilepsy (Generalized tonic seizures).
Count the number of seizures and deaths in each group of mice in the experiment; Level III and IV incubation period. The incubation period of mice that have not attacked to grade IV is recorded as the maximum of 900 seconds. Chi-square test was used for statistics of the number of cases. Calculate the mean and standard error of the incubation period. Use TTEST to compare the model group with other groups, and P<0.05 is considered as a significant difference.

[4] = test system: acetic acid writhing of ICR mice; assay: Acetic acid writhing test in ICR mice; type: in vivo, mouse
Description: Experimental example 7 The pharmacodynamic test of protein BD-4 (Example 4 protein) on acetic acid writhing in ICR mice. Animals: male ICR mice; Drugs and reagents: aspirin, physiological saline, glacial acetic acid, protein BD-4. Experiment Grouping:
One day after the experimental animals adapt to the environment, Aspirin 300 mg/kg, protein BD-4 50 mg/kg, 200 mg/kg were given orally one hour in advance, and the administration volume was 10 ml/kg; Then, 0.6% acetic acid solution was injected into the abdominal cavity, and the latency period (seconds) and frequency of writhing in the animal was observed within 15 minutes.
Calculate the mean and standard error of the data in each group. Compared with the model group by TTEST, P<0.05 was considered as statistically different.
0.6% acetic acid solution was injected into the abdominal cavity of mice, which caused deep and large area and long-term painful stimulation, causing the mice to writhe (the abdomen was contracted into an “S” shape, the trunk and hind legs were stretched, the buttocks were raised and the hips Row). The incubation time and the number of times the mice began to writhe were used as the pain response index to determine whether the test sample had analgesic effect. […] Compared with the model group, P<0.05, which is statistically significant.

[5] = test system: yeast-induced fever model in rats; assay: Yeast-induced fever model in SD rats; type: in vivo, rat
Description: Experimental example 1 The pharmacodynamic test of protein BD-4 (the protein in Example 4) on the fever model of SD rats induced by yeast
• Normal control group; • Model group: yeast fever model; • Positive control group: Aspirin 300 mg/kg group; • Protein BD-4, 10 mg/kg group, 50 mg/kg group. Method:
(§1) Preparation of experimental animals: After the experimental animals adapt to the experimental environment (temperature 22° C.±2° C., relative humidity 50%±2%) for 1 day. Pre-adaptation to measure rectal temperature at 8:00 and 15:00, Rats were fasted and water was taken freely 12 h before experiment. let the animal to empty its feces before measuring the rectal temperature. Apply petroleum jelly to the electronic thermometer probe before each temperature measurement. Insert the rat rectum 2 cm (can be marked at 2 cm to ensure that the depth of each insertion is consistent), and record the body temperature after the reading is stable.
(§2) Subcutaneous injection of dry yeast to replicate rat fever model: The body temperature of the rats was measured before modeling. Qualified rats with a body temperature of 36.2-37.3° C. were selected and randomly divided into groups with 8 rats in each group. After oral administration of aspirin and different doses of protein BD-4, 20% yeast suspension (10 ml/kg) was injected subcutaneously immediately, and the normal control group was injected intraperitoneally with an equal volume of normal saline. the rats' body temperature was monitored after 2 hours for a total of 8 hours.
(§3) According to the body temperature measured at each time point on the day of the experiment, calculate the mean, standard deviation and standard error of the body temperature of each group of rats. The data of each group was compared with TTEST, and P<0.05 was considered as a significant difference.

[6] = test system: lipopolysaccharide (LPS) induced fever in rats; assay: Lipopolysaccharide (LPS) induced fever in SD rats; type: in vivo, rat
Description: Experimental example 2 The pharmacodynamic test of protein BD-4 (Example 4 protein) on lipopolysaccharide (LPS) induced fever in SD rats.
Experiment Grouping: • Model group: lipopolysaccharide fever model; • Positive control group: Aspirin 300 mg/kg group, • Protein BD-4, 10 mg/kg group, 50 mg/kg group. Method: the method of intraperitoneal injection of Lipopolysaccharide to create fever model in rats.
as §1, with “experiment. before the experiment,” for “experiment.”
as §2, with “Intraperitoneal” for “Subcutaneous”, “lipopolysaccharide” for “dry yeast”, “lipopolysaccharide (20 μg/kg, 2” for “20% yeast suspension (10”, “intraperitoneally” for “subcutaneously”
as §3

[7] = dextromethorphan 15 mg/kg, P<0.05
[8] = aspirin 300 mg/kg oral, 0.6% acetic acid i.p., within 15 minutes

SMILES: COc1ccc2c(c1)[C@]13CCCC[C@@H]1[C@H](C2)N(C)CC3 [Dextromethorphan, dextromethorphan hydrobromide, reference compound]
- Incubation period ([1]; Dextromethorphan 15 mg/kg oral, cough latency, X ± SEM): 39.2 ± 2.8 s
- Number of coughs ([1]; Dextromethorphan 15 mg/kg oral, within 2 minutes, X ± SEM): 40.2 ± 3.5
- Cough incubation period vs solvent control group [1, 7]: significant improvement
- Number of coughs vs solvent control group [1, 7]: significant improvement

SMILES: CN1C(=O)CN=C(c2ccccc2)c2cc(Cl)ccc21 [Diazepam, reference compound]
- Grade IV seizure rate ([2]; 10 mice, PLO 225 mg/kg i.p.): 0**
- mortality rate ([2]; 10 mice, PLO 225 mg/kg i.p.): 0
- Level II onset incubation period ([2]; mean ± SEM): 118 ± 9 s
- Level III onset incubation period ([2]; mean ± SEM): 172 ± 13 s
- Level IV onset incubation period ([2]; mean ± SEM, no grade IV attack recorded as 1800 s): 1800 ± 0 s
- Number of deaths ([2]; of 10 mice, PLO 225 mg/kg i.p.): 0
- Number of Grade IV cases ([2]; of 10 mice, PLO 225 mg/kg i.p., 30 min observation): 0**

SMILES: CCOC(=O)Nc1ccc(NCc2ccc(F)cc2)cc1N [Retigabine, reference compound]
- Grade IV seizure rate ([3]; 10 mice, PTZ 65 mg/kg i.p.): 10%**
- mortality rate ([3]; 10 mice, PTZ 65 mg/kg i.p.): 0
- Level III onset latency ([3]; mean ± SEM): 106 ± 12 s
- Grade IV onset latency ([3]; mean ± SEM, no grade IV attack recorded as 900 s): 819 ± 81 s
- Number of deaths ([3]; of 10 mice, PTZ 65 mg/kg i.p.): 0
- Number of Grade IV cases ([3]; of 10 mice, PTZ 65 mg/kg i.p., 15 min observation): 1**

SMILES: CC(=O)Oc1ccccc1C(=O)O [aspirin, reference compound]
- Frequency of writhing vs model group ([4]; Aspirin 300 mg/kg, P<0.05): reduce the frequency of writhing
- Incubation period of writhing vs model group ([4]; Aspirin 300 mg/kg, P<0.05): significantly delay the incubation period of writhing
- Number of twists [4, 8]: 16.7 ± 2.6 times
- Writhing latency [4, 8]: 301.0 ± 30.4 s
- Body temperature 2 hours after modeling ([5]; aspirin 300 mg/kg oral, 2 h after 20% yeast s.c.): 36.5 ± 0.1 °C
- Body temperature 4 hours after modeling ([5]; aspirin 300 mg/kg oral, 4 h after 20% yeast s.c.): 36.9 ± 0.1 °C
- Body temperature 6 hours after modeling ([5]; aspirin 300 mg/kg oral, 6 h after 20% yeast s.c.): 37.0 ± 0.1 °C
- Body temperature 8 hours after modeling ([5]; aspirin 300 mg/kg oral, 8 h after 20% yeast s.c.): 37.2 ± 0.1 °C
- Effect on increase in body temperature of model rats ([5]; aspirin 300 mg/kg, 4, 6 and 8 hours after modeling, vs model group P<0.05): effectively inhibit the increase in body temperature
- Body temperature 2 hours after modeling ([6]; aspirin 300 mg/kg oral, 2 h after LPS 20 μg/kg i.p.): 36.9 ± 0.2 °C
- Body temperature 4 hours after modeling ([6]; aspirin 300 mg/kg oral, 4 h after LPS 20 μg/kg i.p.): 37.0 ± 0.1 °C
- Body temperature 6 hours after modeling ([6]; aspirin 300 mg/kg oral, 6 h after LPS 20 μg/kg i.p.): 36.9 ± 0.1 °C
- Body temperature 8 hours after modeling ([6]; aspirin 300 mg/kg oral, 8 h after LPS 20 μg/kg i.p.): 36.9 ± 0.1 °C
- Effect on increase in body temperature of model rats ([6]; aspirin 300 mg/kg, 2, 4, 6 and 8 hours after modeling, vs model group P<0.05): effectively inhibit the increase in body temperature
